The values below come from patent US6268391A, “Benzylidene-1,3-dihydro-indol-2-one derivatives a receptor tyrosine kinase inhibitors, particularly of Raf kinases” (Glaxo Wellcome Inc., priority 1997, dated 2001).

For this assay, the target named is T1, Human cRaf1 (Homo sapiens, UniProt P04049).
T1 construct: poly-histidine (C); made in house
Description: Raf kinase assay (cRaf1 assay / Raf/MEK cascade assay). In kind it is biochemical. The settings on record: Table 3; read-out: Raf Kinase activity. How it is done:
The potency of cRaf1 dependent kinase activity was measured using one of two assay formats. The first measured cRaf1 catalyzed phosphorylation of MEK1, the natural substrate for cRaf1. This assay is referred to as the cRaf1 assay. The second measured the ability of cRaf1 to phosphorylate and activate MEK1. This assay is referred to as the Raf/MEK cascade assay.
Human cRaf1 tagged with poly histidine at the carboxyterminus was expressed in a baculovirus expression system and purfied by Ni chelate affinity chromatography. Human MEK1 was expressed in E. coli as a fusion protein with Glutathione-S-transferase, and purified by glutathione sepharose affinity chromatography. […] Reactions contained cRaf1 (20 nM), MEK1 (100-500 nM), [γ-^32 P]ATP ([…]), Mg^2+ (10 mM), MOPS (50 mM, pH 7.5). Reactions were incubated at room temperature for periods of time ranging from 20-120 minutes. Inhibitors were diluted in 100% DMSO prior to addition to the assay. Reactions were terminated with an equal volume of 0.5% phosphoric acid. MEK1 phosphorylation was detected by scintillation counting following collection of protein onto phosphocellulose filters.
Human cRaf1 and MEK1 were purified as described above. A peptide substrate phosphorylated by MEK1 was used as the final phosphoryl group acceptor. […] Assay conditions were the same as those described above except for the following modifications. Reactions contained cRaf1 (1-5 nM), MEK1 (60 nM), and peptide ([…]).

Bounds are passed on as bounds.

“2,6-Dibromo-4-[(5-glycoloyl-2-oxo-1,2-dihydro-3H-indol-3-ylidene)methyl]phenyl ethyl carbonate [Example 155]”: the IC50 lay in the range of 10000 to 100000 nM. As to “3-(3,5-Dibromo-4-hydroxy-benzylidene)-5-(3-methylimidazol-1-yl-acetyl)-1,3-dihydro-indol-2-one [Example 71]”, the IC50 was under 1000 nM. Next, “3-(3-Bromo-4-hydroxy-5-ethoxy-benzylidene)-5-(2-dimethylamino-acetyl)-1,3-dihydro-indol-2-one [Example 111]”: under 1000 nM; “5-{2-[N-Benzyl-N-(2-hydroxy-acetyl)-amino]-ethyl}-3-(3,5-dibromo-4-hydroxy-benzylidene)-1,3-dihydro-indol-2-one [Example 78]”: under 1000 nM. Next, `CCOc1cc(C=C2C(=O)Nc3ccc(-c4csc(C)n4)cc32)cc(Br)c1O` [Example 3, 3-(3-Bromo-5-ethoxy-4-hydroxy-benzylidene)-5-(2-methyl-thiazol-4-yl)-1,3-dihydro-indol-2-one]: under 1000 nM; `Cc1nc(-c2ccc3c(c2)C(=Cc2cc(Cl)c(O)c(Cl)c2)C(=O)N3)cs1` [Example 4]: under 1000 nM; `CC(C)CC(=O)c1ccc2c(c1)C(=Cc1cc(Br)c(O)c(Br)c1)C(=O)N2` [Example 5]: under 1000 nM. To `O=C1Nc2ccc(C(=O)c3ccccc3)cc2C1=Cc1cc(Br)c(O)c(Br)c1` [Example 6, 5-Benzoyl-3-(3,5-dibromo-4-hydroxy-benzylidene)-1,3 dihydro-indol-2-one] belongs under 1000 nM; to `O=C1Nc2ccc(C(=O)c3ccccc3)cc2C1=Cc1cc(Cl)c(O)c(Cl)c1` [Example 7, 5-Benzoyl-3-(3,5-dichloro-4-hydroxy-benzylidene)-1,3-dihydro-indol-2-one], under 1000 nM; to `CC(C)CC(=O)c1ccc2c(c1)C(=Cc1cc(Cl)c(O)c(Cl)c1)C(=O)N2` [Example 9], under 1000 nM.

On to `CCOc1cc(C=C2C(=O)Nc3ccc(C(=O)CC(C)C)cc32)cc(Br)c1O` [Example 10, 3-(3-Bromo-5-ethoxy-4-hydroxy-benzylidene)-5-(3-methyl-butanoyl)-1,3-dihydro-indol-2-one], for which the IC50 was under 1000 nM. Consider `O=C1Nc2ccc(C(=O)c3cccnc3)cc2C1=Cc1cc(Br)c(O)c(Br)c1` [Example 11], for which the IC50 was under 1000 nM. To `O=C1Nc2ccc(C(=O)c3cccnc3)cc2C1=Cc1cc(Cl)c(O)c(Cl)c1` [Example 12, 3-(3,5-Dichloro-4-hydroxy-benzylidiene)-5-(pyridine-3-carbonyl)-1,3-dihydro-indol-2-one] belongs under 1000 nM; to `O=C1Nc2ccc(C(=O)c3ccncc3)cc2C1=Cc1cc(Br)c(O)c(Br)c1` [Example 13, 3-(3,5-Dibromo-4-hydroxy-benzylidene)-5-(pyridine-4-carbonyl)-1,3-dihydro-indol-2-one], under 1000 nM. As to `CCOc1cc(C=C2C(=O)Nc3ccc(C(=O)c4ccncc4)cc32)cc(Br)c1O` [Example 14, 3-(3-Bromo-5-ethoxy-4-hydroxy-benzylidene)-5-(pyridine-4-carbonyl)-1,3-dihydro-indol-2-one], the IC50 was under 1000 nM. To `O=C1Nc2ccc(C(=O)c3ccncc3)cc2C1=Cc1cc(Cl)c(O)c(Cl)c1` [Example 15, 3-(3,5-Dichloro-4-hydroxy-benzylidene)-5-(pyridine-4-carbonyl)-1,3-dihydro-indol-2-one] belongs under 1000 nM. Next, `CCOc1cc(C=C2C(=O)Nc3ccc(C(=O)c4cccnc4)cc32)cc(Br)c1O` [Example 16, 3-(3-Bromo-5-ethoxy-4-hydroxy-benzylidene)-5-(pyridine-3-carbonyl)-1,3-dihydro-indol-2-one]: under 1000 nM. To `O=C1Nc2ccc(-c3cnco3)cc2C1=Cc1cc(Cl)c(O)c(Cl)c1` [Example 17] belongs under 1000 nM; to `O=C1Nc2ccc(-c3cnco3)cc2C1=Cc1cc(Br)c(O)c(Br)c1` [Example 18, 3-(3,4-Dibromo-4-hydroxy-benzylidene)-5-(oxazol-5-yl)-1,3-dihydro-indol-2-one], under 1000 nM. Take `CCc1nc(-c2ccc3c(c2)C(=Cc2cc(Br)c(O)c(Br)c2)C(=O)N3)cs1` [Example 19, 3-(3,5-Dibromo-4-hydroxy-benzylidene)-5-(2-ethyl-thiazol-4-yl)-1,3-dihydro-indol-2-one]: the IC50 was under 1000 nM. To `COC(=O)c1ccc2c(c1)C(=Cc1cc(Br)c(O)c(Br)c1)C(=O)N2` [Example 20, 3-(3,5-Dibromo-4-hydroxy-benzylidene)-2-oxo-2,3-dihydro-1H-indol-5-carboxylic acid methyl ester] belongs under 1000 nM; to `O=C1Nc2ccc(C(=O)c3ccco3)cc2C1=Cc1cc(Br)c(O)c(Br)c1` [Example 21], under 1000 nM. To `O=C1Nc2ccc(C(=O)c3ccco3)cc2C1=Cc1cc(Cl)c(O)c(Cl)c1` [Example 22] belongs under 1000 nM; to `CCOc1cc(C=C2C(=O)Nc3ccc(C(=O)c4ccco4)cc32)cc(Br)c1O` [Example 23], under 1000 nM; to `O=C1Nc2ccc(C(=O)C3CC3)cc2C1=Cc1cc(Br)c(O)c(Br)c1` [Example 24, 5-Cyclopropanecarbonyl-3-(3,5-dibromo-4-hydroxy-benzylidene)-1,3-dihydro-indol-2-one], under 1000 nM. To `O=C1Nc2ccc(C(=O)C3CCCC3)cc2C1=Cc1cc(Br)c(O)c(Br)c1` [Example 26, 5-Cyclopentanecarbonyl-3-(3,5-dibromo-4-hydroxy-benzylidene)-1,3-dihydro-indol-2-one] belongs under 1000 nM. In the case of `COC(=O)c1ccc2c(c1)C(=Cc1cc(Cl)c(O)c(Cl)c1)C(=O)N2` [Example 27, 3-(3,5-Dichloro-4-hydroxy-benzylidene)-2-oxo-2,3-dihydro-1H-indole-5-carboxylic acid methyl ester], the IC50 was under 1000 nM.

In the case of `O=C1Nc2ccccc2C1=Cc1cc(Br)c(O)c(Br)c1` [Example 28, 3-(3,5-Dibromo-4-hydroxy-benzylidene)-1,3-dihydro-indol-2-one], the IC50 lay in the range of 1000 to 10000 nM. Regarding `O=C1Nc2ccc(C(=O)c3cccs3)cc2C1=Cc1cc(Br)c(O)c(Br)c1` [Example 29, 3-(3,5-Dibromo-4-hydroxy-benzylidene)-5-(thiophene-2-carbonyl)-1,3-dihydro-indol-2-one], the IC50 was under 1000 nM. To `Nc1nc(-c2ccc3c(c2)C(=Cc2cc(Br)c(O)c(Br)c2)C(=O)N3)cs1` [Example 30, 5-(2-Amino-thiazol-4-yl)-3-(3,5-dibromo-4-hydroxy-benzylidene)-1,3-dihydro-indol-2-one] belongs under 1000 nM. For the compound `O=C1Nc2ccc(-c3cn4ccccc4n3)cc2C1=Cc1cc(Br)c(O)c(Br)c1` [Example 31, 3-(3,5-Dibromo-4-hydroxy-benzylidene)-5-(imidazo[1,2a]pyridin-2-yl)-1,3-dihydro-indol-2-one], the IC50 is under 1000 nM.

As to `CCC(=O)c1ccc2c(c1)C(=Cc1cc(Br)c(O)c(Br)c1)C(=O)N2` [Example 32, 3-(3,5-Dibromo-4-hydroxy-benzylidene)-5-propionyl-1,3-dihydro-indol-2-one], the IC50 is under 1000 nM.

As for `NS(=O)(=O)c1ccc2c(c1)C(=Cc1cc(Br)c(O)c(Br)c1)C(=O)N2` [Example 33, 3-(3,5-Dibromo-4-hydroxy-benzylidene)-2-oxo-2,3-dihydro-1H-indole-5-sulfonic acid amide], the IC50 was under 1000 nM.
